pIC50: −log10 of the molar value.
Key:
CDK8 = CDK8 (Homo sapiens (Human), UniProt P49336); conditions: commercial CDK8 inhibitor; cited from earlier work
A549 cells [1] = experiment: TGF-β1-induced EMT protein expression, western blot; type: cell-based, human; conditions: test compounds 2 μM, senexin A 5 μM, pirfenidone 1 mM; TGF-β1 10 ng/mL
Experimental: FIGS. 4A-4B show the inhibition of epithelial-to-mesenchymal transition protein expressions by CDK8 inhibitors in human alveolar epithelial cells. […] Cell lysates were subjected to a Western blot analysis using the indicated antibodies. Results are shown as the mean t SEM from three independent experiments. *p<0.05, and ***p<0.001 compared to the control group; #p<0.05, ##p<0.01, and ###p<0.001 compared to the TGF-β1-treated group. […] Cell viabilities were determined by an MTT assay. Results are shown as the mean t SEM of three independent experiments.
(§1) Cells (106) were incubated for 10 min at 4° C. in lysis buffer (20 mM HEPES at pH 7.4, 2 mM EGTA, 50 mM β-glycerophosphate, 0.1% Triton X-100, 10% glycerol, 1 mM DTT, 1 μg/mL of leupeptin, 5 μg/mL of aprotinin, 1 mM phenylmethylsulfonyl fluoride, and 1 mM sodium orthovanadate), scraped off, incubated on ice for an additional 10 min, and centrifuged at 17,000 g for 30 min at 4° C. Protein samples (20 μg) were then electrophoresed on SDS-polyacrylamide gel electrophoresis (PAGE) gels and transferred to a nitrocellulose membrane, which was then blocked by incubation for 30 min at room temperature with 5% bovine serum albumin (BSA) in Tris-buffered saline with 0.1% Tween-20 (TBST). Immunoblotting was performed by overnight incubation at 4° C. with primary antibodies in TBST, followed by incubation for 1 h at room temperature with horseradish peroxidase (HRP)-conjugated secondary antibodies. Bound antibodies were measured using enhanced chemiluminescence (ECL) reagent (GE Healthcare, UK) and exposed to photographic film.

A549 cells [2] = experiment: Nuclear p-Smad3 T179 and RNA polymerase II pS2/S5 after TGF-β1, fractionation and western blot; type: cell-based, human; conditions: compound k 5 μM, senexin A 5 μM, pirfenidone 1 mM; TGF-β1 10 ng/ml 3 h
Experimental: FIGS. 8A-8B show the inhibitory effects of cellular distributions of TGF-β1-induced p-Smad3 T179, RNA polymerase II pS2/S5, and Smad3 after treatment with compound k. Human alveolar epithelial A549 cells were incubated with compound k (5 μM), senexin A (5 μM), or pirfenidone (1 mM) for 1 h, followed by stimulation with TGF-β1 (10 ng/ml) for 3 h. Protein expressions in the cytoplasmic and nuclear fractions were subjected to a Western blot analysis using the indicated antibodies. α-Tubulin and histone H3 served as loading controls for the cytoplasmic and nuclear fractions, respectively. Results are shown as the mean±SEM of three independent experiments. **p<0.01 and ***p<0.001 compared to the control group; #p<0.05 and ##p<0.01 compared to the TGF-β1-treated group.
as §1
A Nuclear/Cytosol Fractionation Kit (Biovision, USA) was used to separate the cytosolic and nuclear fractions. […]

DU145 cells = experiment: LiCl-induced β-catenin signaling, western blot; type: cell-based, human; conditions: LiCl 20 mM; senexin A 10 μM
Experimental: Inhibitory phosphorylation of GSK3β was evaluated through western blotting. […] Whole-cell lysates were subjected to western blotting with the indicated antibodies. FIGS. 11J-11K show the comparison of basal activities of the Akt/GSK3β axis between PC-3 and DU145 cells. […] The results are shown as the mean±SEM from at least three independent experiments (*p<0.05, **p<0.01, ***p<0.001 vs. control group; #p<0.05, ##p<0.01, and ###p<0.001 vs. relevant control).
The cells were incubated in lysis buffer for 10 min at 4° C., scraped off, incubated on ice for an additional 10 min and then centrifuged at 17,000 g for 30 min at 4° C. Protein samples were electrophoresed on SDS-PAGE gels, transferred to PVDF membranes and blocked with 5% fat-free milk in PBS for 30 min at room temperature. Immunoblotting was performed overnight with primary antibodies in PBS at 4° C., followed by incubation with HRP-conjugated secondary antibodies for 1 h at room temperature. Bound antibodies will be measured using an ECL reagent and exposed to a photographic film. In the immunoprecipitation assay, cell lysates were immunoprecipitated with 1 μg of antibody and A/G agarose beads overnight at 4° C. After washing the precipitated beads three times with 1 mL ice-cold cell lysis buffer, bound immune complexes were separated by 10% SDS-PAGE and analyzed with immunoblotting.

Sequence of CDK8 (P49336 whole entry, looked up, species assumed): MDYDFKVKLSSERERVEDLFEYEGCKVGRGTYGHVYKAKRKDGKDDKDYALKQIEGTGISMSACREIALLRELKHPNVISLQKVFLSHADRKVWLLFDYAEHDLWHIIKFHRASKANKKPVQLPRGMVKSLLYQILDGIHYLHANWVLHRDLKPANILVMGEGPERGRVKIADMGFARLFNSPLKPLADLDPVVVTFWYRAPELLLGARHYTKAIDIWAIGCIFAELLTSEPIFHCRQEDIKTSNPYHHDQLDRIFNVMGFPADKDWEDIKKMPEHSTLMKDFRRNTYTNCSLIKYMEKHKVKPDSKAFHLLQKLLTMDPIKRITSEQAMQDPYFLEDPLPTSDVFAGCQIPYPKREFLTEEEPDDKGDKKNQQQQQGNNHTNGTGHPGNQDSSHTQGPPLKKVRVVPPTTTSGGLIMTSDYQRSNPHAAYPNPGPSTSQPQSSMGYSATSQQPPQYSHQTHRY
Sequence of CDK8 (P24863 whole entry partner, looked up, species assumed): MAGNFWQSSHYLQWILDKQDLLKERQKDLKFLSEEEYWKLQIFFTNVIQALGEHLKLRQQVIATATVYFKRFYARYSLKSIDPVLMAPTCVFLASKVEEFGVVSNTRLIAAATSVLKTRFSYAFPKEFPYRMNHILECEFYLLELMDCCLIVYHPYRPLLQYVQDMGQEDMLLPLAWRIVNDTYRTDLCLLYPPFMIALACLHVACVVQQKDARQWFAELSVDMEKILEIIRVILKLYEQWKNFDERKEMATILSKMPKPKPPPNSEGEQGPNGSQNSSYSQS

N#Cc1ccc2ncnc(NCCc3ccccc3)c2c1 [Senexin A, reference compound]
pIC50 (CDK8): 6.55 | TGF-β1-triggered EMT protein expressions (A549 cells [1]): slight inhibition | phosphorylation of p-Smad3 T179 and RNA Pol II pSer2/5 (A549 cells [2]): less-potent inhibition | levels of active form of β-catenin and Snail (DU145 cells): reduced the levels
